Assay results: ChEMBL document CHEMBL1127537, “Synthesis and characterization of [125I]-N-(N-benzylpiperidin-4-yl)-4- iodobenzamide, a new sigma receptor radiopharmaceutical: high-affinity binding to MCF-7 breast tumor cells” (J Med Chem, 1994)

What was measured:
[1] = molecular target: Sigma 2 receptor; test: Binding affinity against sigma-2 receptor in rat liver using radioligand [3H]DTG in the presence of dextrallorphan.
[2] = molecular target: Glutamate NMDA receptor; test: Binding affinity against phencyclidine receptor in rat brain membranes using radioligand [3H]TCP.; type: cell membranes
[3] = molecular target: D(2) dopamine receptor (Rattus norvegicus, UniProt P61169); test: Binding affinity against D-2 dopamine receptor in rat brain membranes using [3H](-)-sulpiride as radioligand.; type: cell membranes
Sequence of D(2) dopamine receptor (P61169 whole entry): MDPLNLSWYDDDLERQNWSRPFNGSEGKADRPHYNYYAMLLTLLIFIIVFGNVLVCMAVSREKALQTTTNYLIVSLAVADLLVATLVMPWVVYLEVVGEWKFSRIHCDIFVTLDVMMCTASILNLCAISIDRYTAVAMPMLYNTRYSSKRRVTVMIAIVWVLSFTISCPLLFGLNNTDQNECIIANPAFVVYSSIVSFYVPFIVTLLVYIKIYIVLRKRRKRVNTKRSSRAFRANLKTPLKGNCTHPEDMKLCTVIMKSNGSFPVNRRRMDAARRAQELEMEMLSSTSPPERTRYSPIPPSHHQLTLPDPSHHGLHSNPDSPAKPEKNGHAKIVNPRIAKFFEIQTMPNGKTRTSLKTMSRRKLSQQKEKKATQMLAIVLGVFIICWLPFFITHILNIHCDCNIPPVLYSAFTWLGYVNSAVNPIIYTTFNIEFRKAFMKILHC

[4] = molecular target: Muscarinic acetylcholine receptor; test: Binding affinity against muscarinic receptor in rat brain membranes using radioligand [H}QNB.; type: cell membranes

Ki [1] [nM] | Ki [2] [nM] | Ki [3] [nM] | Ki [4] [nM] | Compound
84.6 | > 100000 | 24.8 | > 100000 | O=C(NC1CCN(Cc2ccccc2)CC1)c1cccc(I)c1
29.6 | > 100000 | 63.4 | > 100000 | O=C(NC1CCN(Cc2ccccc2)CC1)c1ccccc1I
25.2 | > 100000 | 382 | > 100000 | O=C(NC1CCN(Cc2ccccc2)CC1)c1ccc(I)cc1
